Assay results: paper PMC4017264 (Molecular Cell, 2014)

Assays:
[1] = tested on: HOIP PUB domain (15N HOIP 1-184); assay: NMR binding (chemical shift perturbation) to 15N-labeled HOIP PUB domain; design: species or system Human; settings: 15N BEST-TROSY NMR, 100 μM 15N HOIP 1-184, 20 mM phosphate pH 6.8, 50 mM NaCl, 2 mM DTT, 298K
Method: Standard triple-resonance experiments (HNCA, HN(CO)CA, HNCACB, CBCA(CO)NH, and HBHA(CO)NH) were acquired for the assignment of HOIP resonances. Constant time ^13C and ^13C-HSQC were acquired for the methyl and aromatic regions. In addition, (HB)CB(CGCD)HD and (HB)CB(CGCDCE)HE experiments coupled the Cβ of tyrosine resonances to the Hδ and Hε positions of the tyrosine ring, respectively.
Fluorescence polarization binding assays
10 µl of 100 nM FITC-Ahx peptides of either OTULIN (49-67) or p97 (797-806) were aliquoted into a 384-well low volume plate (Corning). Serial dilutions of HOIP PUB into FP assay buffer (20 mM Tris pH 7.4, 100 mM NaCl, 1 mM DTT) were prepared and 10 µl of this was aliquoted to FITC-Ahx peptide-containing wells. Fluorescence polarization was recorded on a PheraStar plate reader (BMG Labtech) using an optics module with $ex = 485 nm and $em = 520 nm. To derive binding constants (KD), polarization values were fitted to a one-site binding model using Graphpad Prism 5.
Nuclear Magnetic Resonance Spectroscopy
Uniformly labeled 15N or 13C, 15N samples of HOIP were prepared following growth in 2M9 medium supplemented with either 15N NH4Cl or 13C glucose.
Proteins were purified as described above and all samples were exchanged into NMR sample buffer (20 mM Na2HPO4/NaH2PO4 pH 6.8, 50 mM NaCl, 2 mM DTT). Lyophilized OTULIN and p97 PIM peptides were reconstituted in NMR sample buffer and the pH adjusted to pH 6.8 prior to use. NMR data were acquired at 298K on Bruker Avance III 600 MHz and Avance2+ 700
MHz spectrometers, equipped with cryogenic triple resonance TCI probes.
Standard triple resonance experiments (HNCA, HN(CO)CA, HNCACB, CBCA(CO)NH, HBHA(CO)NH) were acquired for the assignment of backbone
HOIP resonances. In addition, constant-time (ct) 13C and 13C-HSQC were acquired for the methyl and aromatic regions. For assignment of the H",H# resonances of HOIP tyrosines, (HB)CB(CGCD)HD and (HB)CB(CGCDCE)HE spectra were acquired, which coupled the C$ position of the tyrosine resonances to the H"/H# position of the tyrosine ring respectively. […]

HOIP 1-184 = assay: analytical size-exclusion chromatography binding; design: species or system Human; settings: Superdex 75; 30 µM HOIP, 25 µM OTULIN, 20 mM Tris pH 7.4, 150 mM NaCl, 2 mM DTT, room temperature 15 min
Method: All mutations were generated by site directed mutagenesis using the QuikChange method with KOD HotStart DNA polymerase.
Protein expression and purification
HOIP PUB domain constructs were expressed in Rosetta2 (DE3) pLacI cells.
Cells were grown at 30 °C in 2 xTY medium supplemented with 30 µg/ml kanamycin and 34 µg/ml chloramphenicol to an OD600 of 0.8. The culture was cooled to 18 °C prior to overnight induction with 400 µM IPTG. Cells were resuspended and lysed by sonication in lysis buffer (20 mM Tris pH 7.4, 300 mM NaCl, 50 mM imidazole, 2 mM #-mercaptoethanol, lysozyme, DNaseI
(Sigma) and protease inhibitor cocktail (Roche)). HOIP was purified by immobilized metal affinity chromatography using a HisTrap column (GE Life Sciences). The His6-tag was cleaved by overnight incubation with 3C protease. The protein was buffer exchanged into 20 mM Tris pH 8.5, 2 mM DTT and purified further by anion exchange chromatography (ResourceQ, GE Life Sciences). Eluted HOIP was then subjected to size exclusion chromatography (HiLoad 16/60 Superdex 75, GE Life Sciences) in buffer containing 20 mM Tris pH 8.5, 150 mM NaCl, 2 mM DTT. The resultant fractions were judged to be 99% pure following SDS-PAGE analysis and flash frozen. OTULIN was expressed and purified according to (Keusekotten et al., […]
kind gift from Mark Allen (MRC LMB).
Analytical size exclusion chromatography binding studies […]

[2] = tested on: endogenous LUBAC (HOIP, HOIL-1, SHARPIN); assay: coimmunoprecipitation of endogenous LUBAC components with HA-tagged OTULIN; assay type: cell-based; settings: HA-OTULIN variants in HEK293T cells, anti-HA IP, western blot
Method: Transfected HEK293T or U2OS and NOD2 cells were lysed in the presence of protease and phosphatase inhibitors. Clarified lysates were incubated overnight with anti-V5 and anti-HA-agarose resin. […]
(§1) siOTULIN: […], siMM […]
Immunoprecipitation of HOIP-V5 and HA-OTULIN
HEK293T or U2OS/NOD2 cells were transfected as indicated. The cells were lysed in IP buffer buffer (25 mM HEPES pH 7.4, 150 mM KCl, 2 mM MgCl2, 1 mM EGTA, 0.5% (v/v) Triton X-100) supplemented with 5 mM NEM (Sigma-Aldrich), cOmplete protease inhibitor cocktail (Roche) and PhosSTOP
(Roche). After 30 minutes on ice, the lysates were cleared by centrifugation and incubated overnight at 4 °C with anti-V5-agarose resin or anti-HA-agarose resin. The beads were washed four times in ice-cold IP buffer and the precipitated material was eluted with 0.2 M glycine, pH 2.5. […]

[3] = tested on: LUBAC-induced NFκB activity; assay: NFκB luciferase reporter assay (LUBAC-induced); assay type: cell-based; settings: HEK293T cells; for inhibition of NFκB activity induced by HOIP PIM pocket mutants (N102D, Y82A) + HOIL-1 (in words): compared with wild-type HOIP
Method: Cells were cotransfected with the NFκB luciferase reporter construct pBIIXluc and the thymidine kinase-renilla luciferase construct in addition to other vectors used in the study. After 24 hr, cells were lysed in passive lysis buffer (Promega), and luciferase activity was recorded. Protein expression levels were determined by western blotting of cell lysates. […]
as §1
Luciferase reporter assays
Cells were co-transfected with the NF!B luciferase reporter construct pBIIXluc and the thymidine kinase-renilla luciferase construct to enable normalization of transfection efficiency. Cells were co-transfected with additional plasmids as indicated. After 24 h cells were lysed in 75 %L passive lysis buffer (Promega) and luciferase activity was measured on a FLUOstar Omega
Microplate Reader (BMG LABTECH GmbH, Offenburg, Germany) using the DualLuciferase ® Assay System (Promega) according to the manufacturer’s instructions. Protein expression levels were determined by SDS-PAGE and Western blotting of cell lysates as indicated. The data shown represents mean ± SEM. A two-tailed Student´s t -test was applied to evaluate statistical

[4] = tested on: HOIP (Met1-linked polyUb); assay: HOIP autoubiquitination, purification of endogenous Met1-polyUb conjugates (M1-SUB pulldown); assay type: cell-based; settings: U2OS/NOD2 cells, ectopic OTULIN variants, basal, identical with L18-MDP or TNF, immunoblot
Source text: Antibodies and affinity resin
The following antibodies and reagents were used according to the manufacturers’ instructions: anti-HA-agarose resin (A2095), anti-V5-agarose resin (A7345) and rabbit polyclonal anti-HOIP/RNF31 (SAB2102031, Sigma-Aldrich), rat monoclonal anti-HA (#11867423991, Roche Diagnostics, Burgess Hill, UK), mouse monoclonal anti-ubiquitin (IMG-5021, Imgenex, San Diego, CA), rabbit polyclonal anti-SHARPIN (#14626-1-AP, ProteinTech, Chicago, IL), rabbit polyclonal anti-RBCK1/HOIL-1 (NBP1-88301, Novus Biologicals, Littleton, CO), mouse monoclonal anti-V5 (MCA1360, AbD Serotec, Kidlington, UK), mouse monoclonal anti-$-actin (MAB1501, Chemicon, Millipore, Billerica, MA), rabbit polyclonal anti-HOIL-1, rabbit polyclonal anti-HOIP/RNF31
(Sigma), mouse monoclonal anti-p97 (Thermo Scientific). The
Fam105B/OTULIN antibody was previously described (Keusekotten et al., 2013). […]
HEK293ET, RPE1 and U2OS cells were collected, washed with PBS and lysed on ice for 30 minutes in SEC cell extraction buffer (150 mM NaCl, 50 mM Tris-HCl pH 7.4, 1 mM MgCl2, 1 mM DTT, 0.3% NP40, protease and (Roche)). […] In total 3.1 mg protein extract was analyzed on a Superdex 200 10/300 GL column (GE Life Sciences). […]

[5] = tested on: HOIP (Met1-linked polyUb); settings: overexpression of catalytically inactive OTULIN, ref Fiil et al., 2013, Keusekotten et al.; cited from earlier work
Source text: So far, the cellular consequences of OTULIN-LUBAC interaction are unclear. […] We wondered whether this depended on the formation of the OTULIN-HOIP complex or whether OTULIN would act in trans on the complex. When coexpressed with HOIL-1, HOIP PUB binding mutants autoubiquitinated in cells exp ...

Row | Substance | binding / chemical shift perturbations of HOIP PUB domain (in words) [1] | binding to HOIP aa 1-184 (in words) (HOIP 1-184) | coimmunoprecipitation of endogenous LUBAC components (in words) [2] | inhibition of NFκB activity induced by wild-type LUBAC (in words) ([3]; HOIL-1 + wild-type HOIP) | inhibition of NFκB activity induced by HOIP PIM pocket mutants (N102D, Y82A) + HOIL-1 (in words) [3] | inhibition of NFκB activity induced by HOIP PIM pocket mutants (N102D, Y82A) + HOIL-1 (in words) ([3]; listed as wild-type OTULIN) | HOIP autoubiquitination with Met1-linked polyUb (in words) [4] | HOIP autoubiquitination with Met1-linked polyUb (in words), previously shown [5]
1 | OTULIN: full-length OTULIN (aa 1–352), Met1-specific deubiquitinase | pattern of HOIP CSPs was identical | able to bind | coimmunoprecipitated all proteins from the endogenous LUBAC complex | abrogated NFκB activity | less effective in inhibiting activity | reduced the ability of OTULIN to antagonize LUBAC-induced NFκB activity | – | –
2 | OTULIN C129A: catalytically inactive OTULIN C129A mutant (CA) | – | – | – | – | – | – | led to extensive HOIP ubiquitination | lead to the autoubiquitination of HOIP with Met1-linked polyUb chains
